Test results: article PMC5224969 (ChemMedChem, 2016)
Like-named read-outs stand apart in the source and are kept apart here.

Legend:
[1] = system: BV-173 cells; test: MTT cell viability assay, BV-173; assay type: cell-based, human; settings: read-out: IC50 BV-173
[2] = system: K562 cells; test: MTT cell viability assay, K562; assay type: cell-based, human; settings: read-out: IC50 K562
[3] = system: Panc-1 cells; test: MTT cell viability assay, Panc-1; assay type: cell-based, human
[4] = system: PTK panel (Abl, Csk, Src); test: P32 kinase assay, average over the PTK panel; assay type: biochemical; settings: average of Abl, compared to dasatinib
[5] = stability in mouse plasma, LC/MS/MS; assay type: in vitro ADME
[6] = molecular target: T1, Src (Homo sapiens, UniProt P12931); test: screening at a fixed concentration against Src; assay type: biochemical; settings: fixed concentration 250 pM
[7] = molecular target: T1, Src; test: standard P32 kinase assay, IC50, Src catalytic domain; assay type: biochemical; settings: for Net change in IC50 (%Dasatinib) Src: compared to dasatinib; for IC50: read-out: IC50 Src, P32 kinase assay, polyE4Y substrate, 200 μM ATP
[8] = molecular target: Csk (Homo sapiens, UniProt P41240); test: standard P32 kinase assay, IC50, Csk; assay type: biochemical; settings: for Net change in IC50 (%Dasatinib) Csk: compared to dasatinib; for IC50: read-out: IC50 Csk, P32 kinase assay, polyE4Y substrate, 200 μM ATP
[9] = molecular target: T2, Abl (Homo sapiens, UniProt P00519); test: screening at a fixed concentration against Abl; assay type: biochemical; settings: fixed concentration 250 pM
[10] = molecular target: T2, Abl; test: standard P32 kinase assay, IC50, Abl; assay type: biochemical; settings: for Net change in IC50 (%Dasatinib) Abl: compared to dasatinib; for IC50: read-out: IC50 Abl, P32 kinase assay, CrkL substrate, 200 μM ATP

T1 sequence (P12931 270-523 limits assumed, species assumed): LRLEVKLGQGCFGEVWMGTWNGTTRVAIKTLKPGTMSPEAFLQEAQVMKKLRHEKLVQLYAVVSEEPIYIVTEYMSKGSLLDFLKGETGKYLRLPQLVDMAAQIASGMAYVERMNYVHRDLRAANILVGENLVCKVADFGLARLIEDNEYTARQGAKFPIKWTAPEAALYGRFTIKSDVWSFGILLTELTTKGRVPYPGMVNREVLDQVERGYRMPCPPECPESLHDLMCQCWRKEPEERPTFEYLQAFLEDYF
Csk, sequence (P41240 whole entry, species assumed): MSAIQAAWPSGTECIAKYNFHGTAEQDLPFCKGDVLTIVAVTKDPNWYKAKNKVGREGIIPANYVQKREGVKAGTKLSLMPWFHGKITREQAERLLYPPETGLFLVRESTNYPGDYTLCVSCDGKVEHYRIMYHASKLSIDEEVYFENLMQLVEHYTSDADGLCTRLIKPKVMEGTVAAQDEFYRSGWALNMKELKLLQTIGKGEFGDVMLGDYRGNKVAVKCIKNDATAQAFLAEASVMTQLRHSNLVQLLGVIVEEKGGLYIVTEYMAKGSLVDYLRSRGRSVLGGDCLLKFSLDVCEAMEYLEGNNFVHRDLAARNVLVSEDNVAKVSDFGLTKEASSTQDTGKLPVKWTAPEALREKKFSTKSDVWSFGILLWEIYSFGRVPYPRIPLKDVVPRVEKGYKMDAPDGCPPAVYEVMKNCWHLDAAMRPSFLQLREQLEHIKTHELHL
T2 sequence (P00519 whole entry, species assumed): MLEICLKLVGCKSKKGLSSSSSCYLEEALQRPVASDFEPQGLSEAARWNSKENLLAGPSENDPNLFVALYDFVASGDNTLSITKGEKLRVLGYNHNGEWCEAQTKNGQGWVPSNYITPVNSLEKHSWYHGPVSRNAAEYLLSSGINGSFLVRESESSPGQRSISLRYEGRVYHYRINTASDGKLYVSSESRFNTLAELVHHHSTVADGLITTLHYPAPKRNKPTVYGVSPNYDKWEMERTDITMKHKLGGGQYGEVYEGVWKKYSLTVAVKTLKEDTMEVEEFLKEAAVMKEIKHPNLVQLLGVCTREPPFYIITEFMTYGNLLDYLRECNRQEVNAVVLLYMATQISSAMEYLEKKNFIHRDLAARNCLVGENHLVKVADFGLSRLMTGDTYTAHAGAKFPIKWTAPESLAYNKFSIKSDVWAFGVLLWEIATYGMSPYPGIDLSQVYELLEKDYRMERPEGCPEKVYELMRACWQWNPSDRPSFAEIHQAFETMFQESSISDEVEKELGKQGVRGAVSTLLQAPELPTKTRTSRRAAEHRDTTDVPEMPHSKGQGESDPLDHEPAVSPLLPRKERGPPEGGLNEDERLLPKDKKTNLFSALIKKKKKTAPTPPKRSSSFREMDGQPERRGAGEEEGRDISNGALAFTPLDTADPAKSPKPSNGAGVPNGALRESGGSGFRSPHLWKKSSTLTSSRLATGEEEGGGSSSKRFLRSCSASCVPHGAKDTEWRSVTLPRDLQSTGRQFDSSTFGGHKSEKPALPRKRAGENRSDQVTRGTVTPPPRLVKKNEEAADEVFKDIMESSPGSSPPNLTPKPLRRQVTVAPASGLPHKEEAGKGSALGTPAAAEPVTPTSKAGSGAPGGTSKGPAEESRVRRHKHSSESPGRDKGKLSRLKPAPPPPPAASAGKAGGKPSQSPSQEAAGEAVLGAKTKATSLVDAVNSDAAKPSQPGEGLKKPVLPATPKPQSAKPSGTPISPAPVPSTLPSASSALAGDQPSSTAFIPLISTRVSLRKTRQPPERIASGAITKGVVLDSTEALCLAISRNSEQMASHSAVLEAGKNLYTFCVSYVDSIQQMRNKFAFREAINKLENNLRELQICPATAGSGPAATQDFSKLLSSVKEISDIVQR

## CN[C@@H]1C[C@H]2O[C@@](C)([C@@H]1OC)n1c3ccccc3c3c4c(c5c6ccccc6n2c5c31)C(=O)NC4 [Staurosporine, staurosporine]
[1]; Homo sapiens, BV-173, 72 h
  IC50: 4.77 nM

## Cc1nc(Nc2ncc(C(=O)Nc3c(C)cccc3Cl)s2)cc(N2CCN(CCO)CC2)n1 [Compound 1, N-(2-chloro-6-methylphenyl)-2-((6-(4-(2-hydroxyethyl)piperazin-1-yl)-2-methylpyrimidin-4-yl)amino)thiazole-5-carboxamide, reference compound]
[1]; Homo sapiens, BV-173, 72 h
  IC50: < 0.0512 nM
[2]; Homo sapiens, K562, 72 h
  IC50: < 0.0512 nM
[3]; Homo sapiens, PANC-1, 72 h, read-out: IC50 Panc-1
  IC50: 26300 nM

## CC(=O)OCCN1CCN(c2cc(Nc3ncc(C(=O)Nc4c(C)cccc4Cl)s3)nc(C)n2)CC1 [Compound 16]
[4]
  Net change in IC50 (%Dasatinib) Avg: 46%
[5]; 0, 15, 30, 60, 120 min, dasatinib formation monitored
  stability in mouse plasma: completely metabolized
[5]; 0-120 min incubation
  T1/2 in mouse plasma: < 5 min
[1]; MTT, 72 h
  IC50: < 0.0512 nM
[6]
  inhibition relative to dasatinib, Src: inhibited comparably to dasatinib
[7]
  Net change in IC50 (%Dasatinib) Src: −11%
  IC50: < 0.33 nM
[8]
  Selectivity C/A (ratio of IC50 Csk over Abl): 2.6
  Selectivity C/S (ratio of IC50 Csk over Src): > 16.7
  Net change in IC50 (%Dasatinib) Csk: −21%
  IC50: 5.5 nM
[9]
  inhibition relative to dasatinib, Abl: inhibited comparably to dasatinib
[2]; MTT, 72 h
  IC50: < 0.0512 nM
[10]
  Selectivity A/S (ratio of IC50 Abl over Src): > 6.4
  Net change in IC50 (%Dasatinib) Abl: 169%
  IC50: 2.1 nM
[3]; MTT, 72 h
  IC50 Panc-1: no activity

## Cc1nc(Nc2ncc(C(=O)Nc3c(C)cccc3Cl)s2)cc(N2CCN(CCOC(=O)[C@H](C)N)CC2)n1 [Compound 3]
[4]
  Net change in IC50 (%Dasatinib) Avg: 163%
[7]
  Net change in IC50 (%Dasatinib) Src: 5%
  IC50: < 0.39 nM
[8]
  Selectivity C/A (ratio of IC50 Csk over Abl): 7.0
  Selectivity C/S (ratio of IC50 Csk over Src): > 53.8
  Net change in IC50 (%Dasatinib) Csk: 200%
  IC50: 21 nM
[10]
  Selectivity A/S (ratio of IC50 Abl over Src): > 7.7
  Net change in IC50 (%Dasatinib) Abl: 285%
  IC50: 3 nM
